Laboratory results reported in paper PMC7547722, “A versatile soluble siglec scaffold for sensitive and quantitative detection of glycan ligands” (Nature Communications, 2020).
“And” between values parts separate entries of the source, which are not always exact repeats. Equal entries are not always repeated.

Legend:
U937 cells = assay: Flow cytometry, Siglec-Fc pre-complexed with Strep-Tactin, streptavidin or anti-human IgG1; format: cell-based; conditions: for Binding: Suppl Fig 4b
Method: (§1) Strep-Tactin-AF647 (0.55 μg/mL, 0.57 pmol), streptavidin (Biolegend), or anti-human igG1 (Biolegend) was added to Siglec supernatant (50 μL) or purified Siglec and allowed to sit at 4 °C for 15 min. After, the pre-complexed solution was added to cells in a 96-well U-bottom plate for 30 min at 4 °C. After, 200 μL of flow buffer (HBSS, 0.1% BSA, 5 mM EDTA) was added and the plate was spun down at 300 rcf for 5 min. The cells were resuspended in 200 μL of flow buffer and processed through the flow cytometer.
(§2) Flow cytometry was performed on a BD LSRFortessa™ X-20 cell analyzer using BD FACSDiva Software Version 8.0.1 and data was processed using FlowJo LLC. Version 9.9.6 and Graphpad Prism 8. The live, single cell populations were gated out with two gates to obtain the median fluorescence intensity (MFI), which indicates binding of the Siglec-Fc-secondary complex to the cell surface. Control cells that were incubated with Strep-Tactin-AF647 (0.55 μg/mL, 0.57 pmol) was used to determine the baseline fluorescence. Number of cells (# cells) plotted indicates percentage of max (% max).

Jurkat cells = assay: Flow cytometry, pre-complexed Siglec-Fc binding; format: cell-based; conditions: Strep-Tactin-AF647, replicates
Method: as §1, §2

A549 cells = assay: Flow cytometry, pre-complexed Siglec-Fc binding; format: cell-based; conditions: Strep-Tactin-AF647, replicates
Method: as §1, §2

K562 cells = assay: Flow cytometry, pre-complexed Siglec-Fc binding; format: cell-based; conditions: Strep-Tactin-AF647, replicates
Method: as §1, §2

HEK293T cells = assay: Flow cytometry, pre-complexed Siglec-Fc binding; format: cell-based
Method: as §1, §2

HuH7 cells = assay: Flow cytometry, pre-complexed Siglec-Fc binding; format: cell-based; conditions: Strep-Tactin-AF647, replicates
Method: as §1, §2

[1] = tested on: monocytes (CD14+), human splenocytes; assay: Siglec-Fc binding to splenocytes, flow cytometry; format: cell-based; conditions: Suppl Fig 12; three replicate columns
Method: (§3) For human splenocytes, the sample was homogenized in media through a 40 µm filter (Corning) under sterile conditions. Samples were centrifuged at 300 rcf for 5 min. The resulting pellet from the spleen sample and whole human blood were treated with RBC lysis buffer (7 min) and centrifuged at 300 rcf and the RBC lysis was repeated twice more until no RBC remained in the pellet. Samples were treated with human Fc-receptor blocking agent (TruStain FX, Biolegend) in flow buffer (HBSS, 0.1% BSA, 5 mM EDTA). For analysis, the following cocktail was used: hSig8 (PerCP/Cy5.5, clone 7C9, Biolegend cat. no. 347108, 1:200), hCD123 (PE/Cy7, clone 6H6, Biolegend cat. no. 306010, 1:200), hCD19 (PE, clone SJ25C1, Biolegend cat. no. 363004, 1:200), hCD3 (FITC, BD Pharmingen cat. no. 555332, 1:50), hCD14 (BV605, clone M5E2, BD Horizon cat. no. 564056, 1:200), hCD15 (BUV395, clone HI98, BD Horizon cat. no. 563872, 1:200), hCD56 (BV510, clone NCAM16.2, BD Horizon cat. no. 563041, 1:200). For human peripheral blood samples, we additionally used hHLA-DR (APC-Cy7, clone L243, Biolegend cat. no. 307618, 1:200). Pre-complexed Siglec-Fc/Strep-Tactin-AF647 (described above) was added to the antibody cocktail, added to cells, and allowed to stain at 4 °C for 45 min. The cells were then centrifuged at 300 rcf for 5 min and resuspended in flow buffer containing 1 µg/mL propidium iodide prior to analysis by flow cytometry.
as §2

[2] = tested on: NK cells (CD56+), human splenocytes; assay: Siglec-Fc binding to splenocytes, flow cytometry; format: cell-based; conditions: Suppl Fig 12; three replicate columns
Method: as §3, §2

[3] = tested on: B-cells (CD19+), human splenocytes; assay: Siglec-Fc binding to splenocytes, flow cytometry; format: cell-based; conditions: Suppl Fig 12; three replicate columns
Method: as §3, §2

[4] = tested on: T-cells (CD3+), human splenocytes; assay: Siglec-Fc binding to splenocytes, flow cytometry; format: cell-based; conditions: Suppl Fig 12; three replicate columns
Method: as §3, §2

pDCs (CD123high/HLA-DR+) = assay: Siglec ligands on peripheral blood immune cells, flow cytometry; format: cell-based, human; conditions: pDC; replicate values
Method: as §3, §2

neutrophils (CD15+) = assay: as above; format: cell-based, human; conditions: replicate values
Method: as §3, §2

NK cells (CD56+) = assay: as above; format: cell-based, human; conditions: replicate values
Method: as §3, §2

cDCs (CD123dim/HLA-DR+) = assay: as above; format: cell-based, human; conditions: cDC; replicate values
Method: as §3, §2

T-cells (CD3+) = assay: as above; format: cell-based, human; conditions: replicate values
Method: as §3, §2

B-cells (CD19+) = assay: as above; format: cell-based, human; conditions: replicate values
Method: as §3, §2

monocytes (CD14+) = assay: as above; format: cell-based, human; parameters: key: median fluorescence intensity (MFI) of Siglec-Fc complex binding; conditions: replicate values
Method: (§4) Siglec supernatant (50 μL) or purified Siglec was incubated with cells in a 96-well U-bottom plate for 30 min at 4 °C. Following the incubation, 200 μL of flow buffer (HBSS, 0.1% BSA, 5 mM EDTA) was added and the plate was spun down at 300 rcf for 5 min. Strep-Tactin-AF647 (0.55 μg/mL, 50 μL, 0.57 pmol), streptavidin (Biolegend), or anti-human IgG1 (Biolegend) was added to the cells and incubated for 30 min at 4 °C. After, 200 μL of flow buffer (HBSS, 0.1% BSA, 5 mM EDTA) was added and the plate was spun down at 300 rcf for 5 min. The cells were resuspended in 200 μL of flow buffer and processed through the flow cytometer.
as §1
(§5) For human splenocytes, the sample was homogenized in media through a 40 µm filter (Corning) under sterile conditions. Samples were centrifuged at 300 rcf for 5 min. The resulting pellet from the spleen sample and whole human blood were treated with RBC lysis buffer (7 min) and centrifuged at 300 rcf and the RBC lysis was repeated twice more until no RBC remained in the pellet. […]
as §2, with “Version 9.9.6 and Graphpad Prism 8.” left out, “Number of cells (# cells) plotted indicates percentage of max (% max).” left out

eosinophils (Siglec-8+) = assay: as above; format: cell-based, human; parameters: key: median fluorescence intensity (MFI) of Siglec-Fc complex binding; conditions: replicate values
Method: as §4, §1, §5
as §2, with “Version 9.9.6 and Graphpad Prism 8.” left out, “Number of cells (# cells) plotted indicates percentage of max (% max).” left out

basophils (CCR3+) = assay: as above; format: cell-based, human; parameters: key: median fluorescence intensity (MFI) of Siglec-Fc complex binding; conditions: replicate values
Method: as §4, §1, §5
as §2, with “Version 9.9.6 and Graphpad Prism 8.” left out, “Number of cells (# cells) plotted indicates percentage of max (% max).” left out

[5] = tested on: neutrophils (CD15+), human splenocytes; assay: Siglec-Fc (CD22-Fc V1/V2, with or without Fc receptor block) binding to splenocytes, flow cytometry; format: cell-based; conditions: Suppl Fig 12; three replicate columns
Method: as §5, with “pellet. Samples were treated with human Fc-receptor blocking agent (TruStain FX, Biolegend) in flow buffer (HBSS, 0.1% BSA, 5 mM EDTA).” for “pellet.”
as §2, with “Version 9.9.6 and Graphpad Prism 8.” left out, “Number of cells (# cells) plotted indicates percentage of max (% max).” left out

MDA-MB-231 = assay: Flow cytometry, pre-complexed Siglec-Fc binding to breast cancer cell line; format: cell-based; conditions: Strep-Tactin-AF647, replicates
Method: as §1, §2

HS578T = assay: as above; format: cell-based; conditions: Strep-Tactin-AF647, replicates
Method: as §1, §2

MCF7 = assay: as above; format: cell-based; conditions: Strep-Tactin-AF647, replicates
Method: as §1, §2

ZR-75-1 = assay: as above; format: cell-based; conditions: Strep-Tactin-AF647, replicates
Method: as §1, §2

BT549 = assay: as above; format: cell-based; conditions: Strep-Tactin-AF647, replicates
Method: as §1, §2

MDA-MB-468 = assay: as above; format: cell-based; conditions: Strep-Tactin-AF647, replicates
Method: as §1, §2

T47D = assay: as above; format: cell-based; conditions: Strep-Tactin-AF647, replicates
Method: as §1, §2

[6] = tested on: K562 cells treated with Neuraminidase A; assay: Pre-complexed Siglec-Fc binding with or without Neu-A pretreatment; format: cell-based; conditions: Suppl Fig 7a
Method: as §1, §2
K562 cells were incubated with Neuraminidase A at 37 °C for 30 min with shaking every 5 min. Cells were then added to a 96-well U-bottom plate and incubated with pre-complexed Strep-Tactin-AF647/Siglec, as described above.

CMAS−/− HEK293 cells = assay: Pre-complexed Siglec-Fc binding to sialic acid-deficient cells; format: cell-based; conditions: Suppl Fig 7b; HEK CMASKO
Method: Custom crRNA (IDT) was designed to target human CMAS ([…]) and ST6Gal1 ([…]). Cells were seeded at 500,000 cells per well 1 day prior to transfection in a 6-well tissue culture plate. For one well of a 6-well plate, 20 pmol of Cas9 nuclease (IDT), 20 pmol of ATTO-550 labeled crRNA:tracrRNA (IDT) duplex, 8 μL Cas9 Plus reagent (IDT), and 16 μL CRISPRMAX reagent (Thermo Fisher) in 600 μL Opti-MEM medium (Gibco). One day after transfection, cells were removed from the plate by trypsin digestion, washed, resuspended in 300 μl of cell sorting medium (HBSS, 10% FBS, 1 mM EDTA), and stored on ice until sorting. Cells were sorted within the University of Alberta Flow Cytometry Core. The top 5% bright dyes stained with ATTO-550 were sorted into three 96-well plates containing regular culture medium at one cell per well. […]
as §2, with “Version 9.9.6 and Graphpad Prism 8.” left out, “Number of cells (# cells) plotted indicates percentage of max (% max).” left out

Strep-tag II = conditions: cited from earlier work

Sig-1-Fc R116A
Binding (U937 cells; Amount of Siglec 3.75 ug/mL): 54.5 and 53.7 and 57.1
Binding (U937 cells; Amount of Siglec 7.5 ug/mL): 57.9 and 62.1 and 64.6
Binding (U937 cells; Amount of Siglec 15 ug/mL): 67.9 and 72.2 and 70.4
Binding (U937 cells; Amount of Siglec 30 ug/mL): 133 and 128 and 148
Binding (U937 cells; Amount of Siglec 60 ug/mL): 157 and 165 and 148

Sig-8 R128A: Siglec-8-Fc essential arginine mutant
binding of pre-complexed Siglec-Fc (MFI) (Jurkat cells): 80.5 and 89.6 and 88.9
binding of pre-complexed Siglec-Fc (MFI) (A549 cells): 123 and 130 and 127
binding of pre-complexed Siglec-Fc (MFI) (K562 cells): 133 and 120 and 116
binding of pre-complexed Siglec-Fc (MFI) (HEK293T cells; HEK, Strep-Tactin-AF647, replicates): 70.7 and 73.5 (2×)
binding of pre-complexed Siglec-Fc (MFI) (HuH7 cells): 92.2 and 88.8 and 95.7
Binding, Monocytes [1]: 15.5 and 9.76 and 8.04
Binding, NK [2]: 4.43 and 1.18 and 2.36
Binding, B-cells [3]: 3.45 and -1.72 and -2.87
Binding, T-cells [4]: 6.21 and 2.36 and 4.73
Siglec-Fc binding (Figure 3d) (pDCs (CD123high/HLA-DR+)): 74.5 and 11.6 and 48.8
Siglec-Fc binding (Figure 3d) (neutrophils (CD15+)): 38.5 and 12.4 and 5.83
Siglec-Fc binding (Figure 3d) (NK cells (CD56+)): 32.1 and 46.5 and 41.2
Siglec-Fc binding (Figure 3d) (cDCs (CD123dim/HLA-DR+)): 60.4 and -24.4 and 18
Siglec-Fc binding (Figure 3d) (T-cells (CD3+)): 20.5 and 10.3 and 64.2
Siglec-Fc binding (Figure 3d) (B-cells (CD19+)): 41.1 and 12.5 and 42.1
Siglec-Fc binding (Figure 3d) (monocytes (CD14+)): 97.7 and 42.1 and 63.5
Siglec-Fc binding (Figure 3d) (eosinophils (Siglec-8+)): 25.7 and 26.1 and 45
Siglec-Fc binding (Figure 3d) (basophils (CCR3+)): 38.5 and 41.6 and 74.4
Binding, Neutrophils [5]: -13.8 and -28.2 and -29.9
binding of pre-complexed Siglec-Fc (MFI) (U937 cells; U937, Strep-Tactin-AF647, replicates, Fig. 2): 94.6 and 90.4 and 92.5
binding of pre-complexed Siglec-Fc (MFI) (MDA-MB-231): 154 (2×) and 157
binding of pre-complexed Siglec-Fc (MFI) (HS578T): 127 and 117 and 114
binding of pre-complexed Siglec-Fc (MFI) (MCF7): 129 (2×) and 126
binding of pre-complexed Siglec-Fc (MFI) (ZR-75-1): 269 and 266 and 255
binding of pre-complexed Siglec-Fc (MFI) (BT549): 101 and 105 (2×)
binding of pre-complexed Siglec-Fc (MFI) (MDA-MB-468): 125 and 126 and 131
binding of pre-complexed Siglec-Fc (MFI) (T47D): 86.1 and 97.6 and 94.1

Siglec-2
Binding (HEK293T cells; Suppl Fig 7b, HEK WT): 631 and 654 and 721
Binding ([6]; +Neuraminidase): 88.8 and 91.5 and 90.6
Binding ([6]; -Neuraminidase): 2128 and 1497 and 1576
Binding (CMAS−/− HEK293 cells): 86 and 84.2

Streptavidin: protein binding Strep-tag II with intermediate affinity [reference compound]
Kd (Strep-tag II): 72 µM
Siglec-1-Fc Binding (U937 cells; Suppl Fig 4a, Streptavidin alone): 150 and 128 and 134
